The values below come from PubChem BioAssay (NCI).

Structures are written as SMILES. Values joined by “and” are separate entries in the source; they are usually repeats but may differ in a detail not shown here. Identical values can stand only once.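 Protocol summary: plate cells (96-well), add compound at 5 concentrations, incubate 48 h, interpolate endpoints linearly. GI50 = concentration required for 50% inhibition of growth. Definition used: TGI = concentration required for complete inhibition of growth.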 Some results are limits rather than exact numbers.

Holding throughout (assay): DTP human tumour cell line panel, 48 h
Experiment [1] relates to 786-0 renal.
For experiment [2], the system named is IGROV1 ovarian.
Experiment [3] deals with NCI-H226 lung.
In experiment [4] the test system is RPMI-8226 leukemia.
Experiment [5] relates to RXF 393 renal.
Experiment [6] has as its system SF-268 CNS.
The test system of experiment [7] is SK-OV-3 ovarian.
In experiment [8] the test system is SR leukemia.
Experiment [9] concerns TK-10 renal.
Experiment [10] concerns U251 CNS.

On to `CN1CCC(C(=O)Nc2n[nH]c3nc(-c4ccc(O)cc4)c(Br)cc23)CC1`, for which the GI50 (commonly the concentration at which growth is held to half of that of the control) in experiment [1] is 3.58 µM and 3.13 µM; in experiment [2], 5.13 µM and 6.36 µM; in experiment [3], 0.674 µM and 1.06 µM; in experiment [4], 9.78 µM and 24.4 µM; in [5], 0.442 µM and 0.485 µM; in experiment [6], 1.14 µM and 0.863 µM. The GI50 in experiment [7] was 1.19 µM and 1.28 µM; in experiment [8], 0.701 µM and 0.306 µM; in [9], 3.16 µM and 6.15 µM; in experiment [10] it was 0.661 µM and 0.848 µM. Further, the TGI – broadly, the concentration at which net growth stops – is 21.4 µM and 24.8 µM in experiment [1]; greater than 25 µM in [2]; 8.55 µM and > 15.5 µM in experiment [3]; greater than 25 µM in [4]; 1.4 µM and 1.6 µM in [5]; 9.27 µM and 4.68 µM in [6]. For the same molecule, the TGI was greater than 25 µM in experiment [7]; greater than 25 µM in [8]; 15.3 µM and 17.1 µM in experiment [9]; greater than 25 µM in [10].
As to `C[n+]1c2ccccc2c(Nc2ccc(NS(=O)(=O)CCCCN=C(N)N)cc2)c2ccc(N)cc21`, the GI50 is 3.8 µM in experiment [1]; 2.92 µM in experiment [2]; 0.128 µM in experiment [3]; 1.43 µM in experiment [4]; 15.7 µM in experiment [5]; 2.16 µM in experiment [6]. The GI50 in experiment [7] is 2.77 µM; in [8], 0.138 µM; in experiment [9], 6.47 µM; in experiment [10], 0.22 µM. For the same molecule, the TGI was greater than 100 µM in experiment [1]; greater than 100 µM in [2]; 31.2 µM in experiment [3]; 23.3 µM in experiment [4]; greater than 70.8 µM in [5]; greater than 85.5 µM in experiment [6]. The TGI in experiment [7] is greater than 100 µM; in experiment [8], greater than 26.3 µM; in experiment [9] it was 58.3 µM; in experiment [10], 54 µM.
For `CN1C(=O)C(=Cc2cn(Cc3ccccc3)c3ccccc23)C(=O)N(C)C1=O`, the GI50 in experiment [1] was 57.7 µM; in [2], 1.64 µM; in experiment [3], 3.46 µM; in experiment [4] it was 26.9 µM; in experiment [5], 23.1 µM; in experiment [6] it was greater than 86.6 µM. Besides, the GI50 in experiment [7] is 6.16 µM; in [8] it was 43.1 µM; in experiment [9], 4.28 µM; in experiment [10], 18.2 µM. The TGI in experiment [1] is greater than 100 µM; in [3] it was 27.8 µM; in experiment [4], greater than 100 µM; in [5], greater than 100 µM; in experiment [6], greater than 100 µM; in experiment [7] it was greater than 100 µM. In addition, the TGI in [8] is greater than 100 µM; in experiment [9], 56.5 µM; in [10] it was greater than 71.3 µM.
In the case of `COc1ccc(-c2cn(-c3cccc(C(=O)/C=C/c4ccc(O)c(OC)c4)c3)c(=O)[nH]2)cc1`, the GI50 in experiment [1] is 4.32 µM; in experiment [2] it was 3.58 µM; in experiment [3], 5.25 µM; in [4], 1.35 µM; in [5] it was 5.85 µM; in [6], 3.32 µM. Further, the GI50 is 4.32 µM in [7], 2.24 µM in experiment [8], 7.38 µM in experiment [9] and 2.86 µM in [10]. The TGI in [1] is 24.5 µM; in [2] it was 18.2 µM; in [3] it was greater than 59.5 µM; in [4] it was 3.68 µM; in experiment [5], 28.6 µM; in [6], 14.7 µM. The TGI is 48.6 µM in [7], greater than 100 µM in experiment [8], greater than 85.4 µM in experiment [9] and 15.3 µM in experiment [10].
`COc1cc(C=O)c(-c2cc3c(cc2C2(C)OCCS2)OCO3)c(OC)c1OC` (stereo not drawn): the TGI in [1] was 23.6 µM; in [2] it was greater than 169 µM; in [3], 29.5 µM; in experiment [4], greater than 160 µM; in experiment [5], 46.9 µM; in [6], greater than 239 µM. Besides, the TGI in experiment [7] was greater than 239 µM; in [8], 50 µM; in [9], greater than 205 µM; in [10], 72 µM.
As to `Cc1ccc(C(=O)N2CCN(C(=O)c3ccc(C)cc3)c3ccccc32)cc1`, the TGI is 43.2 µM in [1]; greater than 100 µM in experiment [2]; greater than 79.8 µM in [3]; greater than 58.2 µM in experiment [4]; 8.43 µM in experiment [5]; greater than 100 µM in experiment [6]. For the same molecule, the TGI in [7] was 25 µM; in [8], greater than 100 µM; in [9], greater than 100 µM; in experiment [10], 24.9 µM.
`c1ccc(Nn2c(CCCCCCCCc3nnc(COc4ccccc4)n3Nc3ccccc3)nnc2COc2ccccc2)cc1`: the GI50 in experiment [1] is 29 µM and 36.3 µM; in experiment [2], 17.7 µM and 46 µM; in experiment [3], 15.6 µM and 70.9 µM; in [5], 157 µM; in [6], 23.5 µM and 70.9 µM; in [7], greater than 300 µM. In addition, the GI50 in experiment [8] is 8.48 µM and 7.33 µM; in [9] it was 45.7 µM and 162 µM; in [10], 39.6 µM and 144 µM. Further, the TGI in [1] is greater than 300 µM; in experiment [2], greater than 300 µM; in experiment [3], greater than 300 µM; in [4], greater than 300 µM; in experiment [5], 98 µM and > 300 µM; in experiment [6], greater than 300 µM. The TGI in experiment [7], in experiment [8], in experiment [9] and in experiment [10] was greater than 300 µM each time.
Consider `O=C(NCCCCCCNC(=O)n1cc(F)c(=O)[nH]c1=O)NCCCOCCOCCOCCOCCOCCOCCOCCOCCOCCOCCOCCOCCOCCOCCOCCOCCOCCOCCOCCOCCOCCCNC(=O)C(O)C(O)C(OC1OC(CO)C(O)C(O)C1O)C(O)CO` (stereo not drawn), for which the concentration for total growth inhibition (TGI) in [1], in experiment [2], in [3], in experiment [4], in experiment [5] and in [6] was greater than 100 µM each time. Further, the TGI in experiment [7], in experiment [8], in experiment [9] and in [10] was greater than 100 µM in each case.
Turning to `O=C(O)c1ccc2c3c(ncnc13)-c1ccccc1C2=O`, the GI50 in [1] was 37 µM; in [2], 43.9 µM; in experiment [3] it was 4.08 µM; in [4], 51.3 µM; in experiment [5], greater than 47.2 µM; in experiment [6] it was 37.1 µM. Further, the GI50 in experiment [7] is greater than 89.5 µM; in [8], 35.7 µM; in experiment [9] it was 21.9 µM; in experiment [10], 4.08 µM. Also, the TGI in experiment [1] is greater than 100 µM; in experiment [2], greater than 100 µM; in experiment [3], greater than 100 µM; in experiment [4], greater than 88.7 µM; in [5] it was greater than 100 µM; in [6], greater than 100 µM. In addition, the TGI in [7], in experiment [8], in experiment [9] and in experiment [10] was greater than 100 µM each time.
